Measured values taken from US11034650B2, “Compounds useful for treating a Mannheimia haemolytica or Histophilus somni infection” (Intervet Inc., priority 2016, dated 2021).
≈ marks a conversion by molar mass, not a printed value.

Assays:
Type in all cases: cell-based
[1] = system: Mannheimia haemolytica MH 6357 (M7/2, reference strain, cattle infection strain); assay: MIC, broth-microdilution (CLSI VET01-A4), strain MH 6357; conditions: Mannheimia haemolytica strain MH 6357, broth-microdilution; unit assumed
How it was run: (§1)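 MIC is the lowest compound concentration showing no visible growth by eye, read from doubling-dilution microdilution trays. Method followed CLSI VET01-A4, with interpretation under CLSI VET01-S3.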

[2] = system: Mannheimia haemolytica MH 6374 (ATCC 33396, reference strain); assay: MIC, broth-microdilution (CLSI VET01-A4), strain MH 6374; conditions: Mannheimia haemolytica strain MH 6374, broth-microdilution; unit assumed
How it was run: as §1

[3] = system: Mannheimia haemolytica MH 10720 (154, BRD field isolate); assay: MIC, broth-microdilution (CLSI VET01-A4), strain MH 10720; conditions: Mannheimia haemolytica strain MH 10720, broth-microdilution; unit assumed
How it was run: as §1

[4] = system: Mannheimia haemolytica MH 12587 (1071, BRD field isolate, macrolide-resistance: erm+, E+); assay: MIC, broth-microdilution (CLSI VET01-A4), strain MH 12587; conditions: Mannheimia haemolytica strain MH 12587, broth-microdilution; unit assumed
How it was run: as §1

[5] = system: Mannheimia haemolytica MH 13065 (XB0446-6003.9, BRD field isolate); assay: MIC, broth-microdilution (CLSI VET01-A4), strain MH 13065; conditions: Mannheimia haemolytica strain MH 13065, broth-microdilution; unit assumed
How it was run: as §1

[6] = system: Mannheimia haemolytica MH 13093 (XB0472-6014.1, BRD field isolate); assay: MIC, broth-microdilution (CLSI VET01-A4), strain MH 13093; conditions: Mannheimia haemolytica strain MH 13093, broth-microdilution; unit assumed
How it was run: as §1

[7] = system: Pasteurella multocida PM 6267 (P 2225 (L386), reference strain, mouse infection strain); assay: MIC, broth-microdilution (CLSI VET01-A4), strain PM 6267; conditions: Pasteurella multocida strain PM 6267, broth-microdilution; unit assumed
How it was run: as §1

[8] = system: Pasteurella multocida PM 6391 (ATCC 43137, reference strain); assay: MIC, broth-microdilution (CLSI VET01-A4), strain PM 6391; conditions: Pasteurella multocida strain PM 6391, broth-microdilution; unit assumed
How it was run: as §1

[9] = system: Pasteurella multocida PM 10775 (080130003051, BRD field isolate); assay: MIC, broth-microdilution (CLSI VET01-A4), strain PM 10775; conditions: Pasteurella multocida strain PM 10775, broth-microdilution; unit assumed
How it was run: as §1

[10] = system: Pasteurella multocida PM 12080 (IV102277-0093, BRD field isolate); assay: MIC, broth-microdilution (CLSI VET01-A4), strain PM 12080; conditions: Pasteurella multocida strain PM 12080, broth-microdilution; unit assumed
How it was run: as §1

Compound | MIC MH 6357 [1] [µg/mL] | MIC MH 6374 [2] [µg/mL] | MIC MH 10720 [3] [µg/mL] | MIC MH 12587 [4] [µg/mL] | MIC MH 13065 [5] [µg/mL] | MIC MH 13093 [6] [µg/mL] | MIC PM 6267 [7] [µg/mL] | MIC PM 6391 [8] [µg/mL] | MIC PM 10775 [9] [µg/mL] | MIC PM 12080 [10] [µg/mL]
CC(C)(O)[C@H](NC(=O)c1ccc(C#Cc2ccc(CNCc3ccco3)s2)cc1)C(=O)NO [Compound 298] | ≤ 0.1 | 0.2 (≈ 0.428 µM) | ≤ 0.1 | 0.4 (≈ 0.856 µM) | 0.2 (≈ 0.428 µM) | 0.4 (≈ 0.856 µM) | 0.4 (≈ 0.856 µM) | ≤ 0.1 | ≤ 0.1 | ≤ 0.1
CSC(C)(C)[C@H](NC(=O)c1ccc(C#Cc2ccc(CNCc3ccncc3)nc2)cc1)C(=O)NO [Compound 341] | 0.8 (≈ 1.59 µM) | 1.6 (≈ 3.18 µM) | 0.2 (≈ 0.397 µM) | 3.1 (≈ 6.16 µM) | 1.6 (≈ 3.18 µM) | 1.6 (≈ 3.18 µM) | 1.6 (≈ 3.18 µM) | 0.8 (≈ 1.59 µM) | 0.2 (≈ 0.397 µM) | 0.4 (≈ 0.794 µM)
CC(C)[C@H](NC(=O)c1ccc(C#Cc2ccc(CNC3CCCC3)cc2)cc1)C(=O)NO [Compound 209] | 3.1 (≈ 7.15 µM) | 6.3 (≈ 14.5 µM) | 1.6 (≈ 3.69 µM) | 12.5 (≈ 28.8 µM) | 6.3 (≈ 14.5 µM) | 12.5 (≈ 28.8 µM) | ≤ 0.1 | 0.4 (≈ 0.923 µM) | ≤ 0.1 | 0.2 (≈ 0.461 µM)
Cc1cnc(CNCc2ccc(C#Cc3ccc(C(=O)N[C@H](C(=O)NO)C(C)(C)S(C)(=O)=O)cc3)cn2)o1 [Compound 357] | 0.8 (≈ 1.48 µM) | 0.8 (≈ 1.48 µM) | ≤ 0.1 | 1.6 (≈ 2.97 µM) | 0.8 (≈ 1.48 µM) | 1.6 (≈ 2.97 µM) | 0.8 (≈ 1.48 µM) | 0.4 (≈ 0.741 µM) | ≤ 0.1 | 0.2 (≈ 0.371 µM)
CC1CN(Cc2ccc(C#Cc3ccc(C(=O)N[C@@H](CO)C(=O)NO)cc3)cc2)CC(C)O1 (some centres unmarked) [Compound 155] | 12.5 (≈ 27.7 µM) | 12.5 (≈ 27.7 µM) | 1.6 (≈ 3.54 µM) | 25 (≈ 55.4 µM) | 12.5 (≈ 27.7 µM) | 25 (≈ 55.4 µM) | ≤ 0.1 | 0.4 (≈ 0.886 µM) | ≤ 0.1 | 0.4 (≈ 0.886 µM)
CC(C)([C@H](NC(=O)c1ccc(C#Cc2ccc(CNCc3cccnc3)s2)cc1)C(=O)NO)S(C)(=O)=O [C.319] | 0.2 (≈ 0.37 µM) | 0.2 (≈ 0.37 µM) | ≤ 0.1 | 0.8 (≈ 1.48 µM) | 0.4 (≈ 0.74 µM) | 0.4 (≈ 0.74 µM) | 0.2 (≈ 0.37 µM) | ≤ 0.1 | ≤ 0.1 | ≤ 0.1
CC(C)([C@H](NC(=O)c1ccc(C#Cc2ccc(CNC3CC3)cc2)cc1)C(=O)NO)S(C)(=O)=O [C.255] | 0.8 (≈ 1.65 µM) | 0.4 (≈ 0.827 µM) | ≤ 0.1 | 1.6 (≈ 3.31 µM) | 0.4 (≈ 0.827 µM) | 0.8 (≈ 1.65 µM) | ≤ 0.1 | ≤ 0.1 | ≤ 0.1 | ≤ 0.1
COCCNCc1ccc(C#Cc2ccc(C(=O)N[C@H](C(=O)NO)C(C)(C)S(C)(=O)=O)cc2)cc1 [Compound 257] | 3.1 (≈ 6.18 µM) | 1.6 (≈ 3.19 µM) | 0.4 (≈ 0.797 µM) | 3.1 (≈ 6.18 µM) | 1.6 (≈ 3.19 µM) | 1.6 (≈ 3.19 µM) | ≤ 0.1 | 0.2 (≈ 0.399 µM) | ≤ 0.1 | ≤ 0.1
CNCc1ccc(C#Cc2ccc(C(=O)N[C@@H](CO)C(=O)NO)cc2)cc1 [Compound 150] | 6.3 (≈ 17.1 µM) | 25 (≈ 68 µM) | 3.1 (≈ 8.44 µM) | 25 (≈ 68 µM) | 12.5 (≈ 34 µM) | 25 (≈ 68 µM) | 6.3 (≈ 17.1 µM) | 25 (≈ 68 µM) | ≤ 0.1 | ≤ 0.1
O=C(N[C@@H](CO)C(=O)NO)c1ccc(C#Cc2ccc(CNCc3cccs3)cc2)cc1 [Compound 160] | 0.8 (≈ 1.78 µM) | 0.8 (≈ 1.78 µM) | 0.4 (≈ 0.89 µM) | 3.1 (≈ 6.9 µM) | 1.6 (≈ 3.56 µM) | 3.1 (≈ 6.9 µM) | ≤ 0.1 | 0.4 (≈ 0.89 µM) | ≤ 0.1 | 0.2 (≈ 0.445 µM)
CC(C)([C@H](NC(=O)c1ccc(C#Cc2ccc(CNC3CC3)nc2)cc1)C(=O)NO)S(C)(=O)=O [Compound 348] | 0.8 (≈ 1.65 µM) | 0.8 (≈ 1.65 µM) | ≤ 0.1 | 3.1 (≈ 6.4 µM) | 0.8 (≈ 1.65 µM) | 0.8 (≈ 1.65 µM) | 0.8 (≈ 1.65 µM) | ≤ 0.1 | ≤ 0.1 | ≤ 0.1
